Reference: patent publication US6610749B2, “Polyhydroxylated benzene-containing compounds” (ARCH Development Corporation, priority 2000, dated 2003)

What was measured:
[1] = Body weight of rats treated with EGCG; format: in vivo, rat
Method: (§1) Animal. Adult Sprague-Dawley (SD; Harlan) rats (body weight for male: 170-190 g; for female: 125-145 g) and lean and obese Zucker (Charles River Laboratory) rats (body weight for lean male: 240-260 g; for obese male: 420-440 g) were given free access to a standard rat chow diet and water unless indicated. Animal experimental protocols were approved by the University of Chicago institutional animal care and use committee. Rats were maintained at an ambient temperature of 25° C. under a photoperiod of 12-hour light and 12-hour dark.
(§2) In vivo treatment. EGCG and other catechins (>98% pure) were isolated from green tea (Camellia sinensis) in our laboratory as described in Liao et al., Biochem. Biophys. Res. Commun. 214: 833-838 (1995). Catechins were dissolved in water for oral administration and in sterile phosphate buffered saline for ip injection. Rats in control groups received vehicle only. Testosterone propionate (TP) and 5α-dihydrotestosterone propionate (DHTP) were dissolved in sesame oil and 4 mg in 0.5 ml sesame oil (16 mg/kg body weight) was injected subcutaneously daily, when indicated.
(§3) Food-restricted, male SD rats were given 12 g rat chow daily, which was about 50% of the amount consumed daily by each control rat. The body weight and the amount of food and water consumed were monitored daily. Food consumption was monitored in rats caged in groups of 3 to 5 animals by weighing food pellets every 24 hr. On the final day, rats were anesthetized with methoxyflurane and blood was collected by heart puncture. Sera were collected after centrifugation (10,000 g for 20 min at 4° C.) for biochemical analysis.
(§4) Statistical analysis. Data are expressed as the mean±sem. The unpaired Student's t-test was used to examine differences between control and the EGCG-injected groups. Analysis of variance and Student-Newman-Keuls multiple range test were used to examine differences among various groups. A probability level of 0.05 was used to indicate significance.
Body weight of subjects treated with EGCG. […] In male SD rats, the effect of EGCG on body weight was dose-dependent. […] Male SD rats injected daily ip with 26 and 53 mg EGCG/kg bw gained body weight by 17-24% relative to their initial body weight, but lost 5-9% relative to the control after 7 days of treatment. Whereas, male SD rats daily injected ip with 85 mg EGCG/kg bw lost 15-21% of their body weight relative to their initial weight and 30-41% relative to the control after 7 days of treatment. Control rats continued growth and increased their body weight by 25-34% relative to their initial weight (see Table 1). Female SD rats injected daily ip with 12.5 mg EGCG (about 92 mg/kg bw) lost 10% of their body weight relative to their initial weight and 29% relative to the control after 7 days of treatment. Therefore, a dose of EGCG of 70-92 mg/kg body weight was used in most experiments.

[2] = format: in vivo, rat
Method: as §1, §2, §4
Weight change in accessory sexual organs and other organs. An effect of EGCG dosage on the weight of accessory sexual organs was also observed. The weight of androgen-sensitive organs, such as ventral and dorsolateral prostates, seminal vesicles, coagulating glands, and preputial glands were reduced by 50-70% after 7 days of treatment with EGCG (about 85 mg/kg bw). Weight changes in these sexual organs were modulated in a catechin-specific manner. Relative to control animals sacrificed at the start of the experiment, these accessory sexual organs (except preputial gland) in male SD rats were reduced by 30-50% in weight after 7 days of EGCG treatment. […]

[3] = tested on: sex hormones, leptin, IGF-I, insulin, LH and GH; assay: Change in levels of sex hormones, leptin, IGF-I, insulin, LH and GH (radioimmunoassay of serum); format: in vivo, rat
Method: as §1, §2, §3
(§5) Biochemical analysis. For biochemical analysis, commercially available radioimmunoassay kits for IGF-I and testosterone (Diagnostic Systems Laboratory, Inc), LH and GH (Amersham), leptin and insulin (Linco Research Inc), and corticosterone (ICN) and analytical kits for glycerol and triglyceride (Sigma) and fatty acids (Roche Molecular Biochemicals) were used. Proximate composition analysis of rats was performed by COVANCE Laboratory (Madison, Wis.). Complete blood count and serum chemistry (e.g., cholesterols, glucose, and enzymatic activities) were performed by the Animal Resource Center at the University of Chicago.
as §4
Change in levels of sex hormones, leptin, IGF-I, insulin, LH and GH. […] After 7 days of treatment with EGCG (about 85 mg/kg bw), circulating testosterone was reduced by about 70% in male SD rats. Similarly, the circulating level of 17β-estradiol was reduced by 34% in females after 7 days of EGCG treatment. […] However, the pulsatile nature of GH secretion prevented us from making definite conclusions about changes in circulating levels of GH in these rats. The effect of EGCG on sex hormones and various peptide hormones investigated was not mimicked by ECG which has one less hydroxyl group than EGCG.

[4] = Exogenous androgen (TP or DHTP) co-administered with EGCG; format: in vivo, rat
Method: as §2
Effects of exogenous androgen reverses the effect of EGCG on accessory sexual organs. To determine if the reduction in weight of accessory sexual organs was due to EGCG-induced reduction in androgen levels, we injected male SD rats with androgen and/or EGCG.

[5] = Change in serum nutrients and proximate body composition; format: in vivo, rat
Method: as §1, §2, §3, §5, §4
Change in serum nutrients and proximate body composition.

[6] = Effect of EGCG on food intake; format: in vivo, rat
Method: as §1
In vivo treatment. EGCG and other catechins (>98% pure) were isolated from green tea (Camellia sinensis) in our laboratory as described in Liao et al., Biochem. Biophys. Res. Commun. 214: 833-838 (1995). Catechins were dissolved in water for oral administration and in sterile phosphate buffered saline for ip injection. Rats in control groups received vehicle only. […]
Food-restricted, male SD rats were given 12 g rat chow daily, which was about 50% of the amount consumed daily by each control rat. The body weight and the amount of food and water consumed were monitored daily. Food consumption was monitored in rats caged in groups of 3 to 5 animals by weighing food pellets every 24 hr. […]

[7] = Change in composition of blood (serum chemistry, complete blood count); conditions: rat, in vivo
Method: as §2, §3
Biochemical analysis. […]
Change in composition of blood. Male SD rats were treated with EGCG and ECG for 7 days and then their serum and whole blood was analyzed for various components. […]

[8] = female SD rats, 12.5 mg EGCG (about 92 mg/kg bw) ip daily, 7 days
[9] = male SD rats, 85 mg EGCG/kg bw ip daily, 7 days
[10] = male SD rats, 26 and 53 mg EGCG/kg bw ip daily, 7 days
[11] = male and female SD rats, 7 days
[12] = male SD and lean Zucker rats, within 7 to 8 days

## O=C(OC1Cc2c(O)cc(O)cc2OC1c1cc(O)c(O)c(O)c1)c1cc(O)c(O)c(O)c1 (single isomer, unassigned; (-)) [EGCG, (−)epigallocatechin-3-gallate]
[1]; 5 or 10 mg EGCG (26 and 53 mg/kg body weight) injected daily, male SD rats
  effectiveness in reducing body weight compared with 15 mg (about 85 mg/kg): not effective or less effective
[1]; IP injection, SD male and female rats, within 2 to 7 days of treatment
  body weight loss: caused acute body weight loss
[1]; [8]
  body weight lost relative to initial weight: 10%
  body weight lost relative to the control: 29%
[1]; [9]
  body weight lost relative to initial weight: 15-21%
  body weight lost relative to the control: 30-41%
[1]; [10]
  body weight gain relative to initial body weight: 17-24%
  body weight lost relative to the control: 5-9%
[1]; male SD rats, ip daily
  effect on body weight, dose dependence: dose-dependent
[2]; about 85 mg/kg bw, 7 days, male rats
  reduction in weight of androgen-sensitive organs (ventral and dorsolateral prostates, seminal vesicles, coagulating glands, preputial glands): 50-70%
[2]; female SD rats, 7 days of treatment
  reduction in weight of estrogen-sensitive organs (uterus and ovary): about 50%
[2]; male SD rats, 7 days of treatment
  reduction in weight of accessory sexual organs (except preputial gland) relative to control animals sacrificed at the start of the experiment: 30-50%
[3]; female SD rats, 7 days
  reduction of circulating level of 17β-estradiol: 34%
  serum level of GH: reduced in females
[3]; male SD rats
  dose dependence of effects on serum testosterone, leptin, IGF-I and insulin: Dose-dependent effects
[3]; male SD rats, 7 days
  serum level of GH: increased in males
[3]; male SD rats, about 85 mg/kg bw, 7 days
  reduction of circulating testosterone: about 70%
[3]; [11]
  blood level of IGF-I: significant reduction
  blood level of insulin: significant reduction
  blood level of leptin: significant reduction
  reduction of serum level of LH: 40-50%
[4]; male SD rats, androgen co-administered
  EGCG-induced body weight loss, food intake restriction, decreases in circulating leptin, IGF-I, insulin and LH, increase in GH under androgen administration: androgen administration was not able to prevent
[4]; male rats injected daily with TP or DHTP (16 mg/kg sc)
  prostate weight loss: did not cause prostate weight loss
[5]; SD rats treated daily for 7 days
  percent water and protein content (proximate composition): no change
[5]; SD rats treated daily for 7 days, 2.5% in control
  carbohydrate content (proximate composition): 1.3%
[5]; SD rats treated daily for 7 days, 4.1% in control
  fat content (proximate composition): 1.4%
[5]; [12]
  decrease of abdominal fat: 20-35%
  decrease of epididymal fat: not epididymal fat
  decrease of subcutaneous fat: 40-70%
[5]; male SD rats
  change in serum cholesterol: −20%
  change in serum glucose: −32%
  change in serum lipids: −15%
  change in serum triglycerides: −46%
  serum level of protein, fatty acids and glycerol: not altered
[5]; obese male Zucker rats, within 4 days
  loss of abdominal fat: 20%
[6]; SD male and female rats, ip
  less food consumed than control rats: 50-60%
[6]; oral administration
  effects of EGCG when administered orally compared with intraperitoneally: diminished or absent
[7]
  serum total protein, albumin, blood urea nitrogen, creatine, PO4 3−, Na+, K+, Ca2+, Cl−, lactate dehydrogenase, alanine aminotransferase, aspartate aminotransferase, γ-glutamyltranspeptidase: Neither EGCG nor structurally-related ECG caused significant changes

## (−)epicatechin-3-gallate [ECG, reference compound]
[3]; rats
  effect on sex hormones and various peptide hormones, compared with the effect of EGCG: not mimicked
